Literature values as cited in patent publication US20050079136A1, “Aerosol formulations of delta tetrahydrocannabinol” (priority 2001, published 2005).

Test system: children with cancer

CCCCCc1cc(O)c2c(c1)OC(C)(C)[C@@H]1CC=C(C)C[C@@H]21 [Δ^8 THC, Δ^8 Tetrahydrocannabinol]
incidence of nausea: greatly reduced
side effects: no significant side effects
